These results are taken from ChEMBL document CHEMBL3045940, “In vivo peritoneal antiangiogenesis and in vitro antiproliferative properties of some bischalcone derivatives” (Med Chem Res, 2012).

Active and inactive are the calls of the source. The calls are words filed in the database; no cut-off is given here.

Assay [1] can be described thus: Antitumor activity against Mus musculus (mouse) EAT cells xenografted in Mus musculus Swiss albino (mouse) assessed as reduction in ascites volume drug administered on day 7,9 and 11 after tumor transplantation […]. The assay is classed as functional.
Assay [2] has as its system EAT. Kind of assay: Antitumor activity against Mus musculus (mouse) EAT cells xenografted in Mus musculus Swiss albino (mouse) assessed as decrease in cell viability drug administered on day 7,9 and 11 after tumor transplantation. It is filed as functional, cell-based.
Assay [3] concerns EAT. Kind of assay: Induction of apoptosis in Mus musculus (mouse) EAT cells xenografted in Mus musculus Swiss albino (mouse) assessed as DNA fragmentation drug administered on day 7,9 and 11 after tumor transplantation by agarose gel electrophoresis. The assay is classed as functional, cell-based.
Assay [4] concerns HepG2. Kind of assay: Antiproliferative activity against Homo sapiens (human) HepG2 cells after 48 hr by MTT assay. Conditions: HepG2, 48 h. It is filed as functional, cell-based.
For assay [5], the system named is EAT. Kind of assay: Antitumor activity against Mus musculus (mouse) EAT cells xenografted in Mus musculus Swiss albino (mouse) assessed as decrease in tumor burden measured as reduction in body weight drug administered on day 7,9 and 11 after tumor transplantation. It is filed as functional, cell-based.
In assay [6] the test system is EAT. Kind of assay: Induction of apoptosis in Mus musculus (mouse) EAT cells xenografted in Mus musculus Swiss albino (mouse) assessed as appearance of condensed nuclei, membrane blebbing and formation of apoptotic bodies drug administered on day 7,9 and 11 after tumor transplantation by Giemsa, ethidium bromide/acridine orange staining analysis. It is filed as functional, cell-based.

In assay [7] the test system is HepG2. The experiment in a line: Induction of apoptosis in Homo sapiens (human) HepG2 cells assessed as DNA fragmentation at 10 uM after 24 hr by agarose gel electrophoresis. The assay is classed as functional, cell-based.
The subject of a further assay is HeLa. The experiment in a line: Antiproliferative activity against Homo sapiens (human) HeLa cells after 48 hr by MTT assay. It is filed as functional, cell-based.
In the next assay the test system is Mus musculus. Kind of assay: Antiangiogenic activity in EAT cells xenografted in Mus musculus Swiss albino (mouse) assessed as reduction in vasculaization in peritoneal cavity drug administered on day 7,9 and 11 after tumor transplantation. The assay is classed as functional, organism-based.

With `COc1ccc(/C=C2\CC/C(=C\c3ccc(OC)c(OC)c3)C2=O)cc1OC`, the “inhibition (INH)” value in [1] is reported as 70%. Moreover, the inhibition result with EAT [2], in the assay on EAT [5] and in the assay with Mus musculus was “Active” throughout. The outcome in the assay on EAT [3], with EAT [6] and with HepG2 [7] was Active. Further, the IC50 in the assay on HepG2 [4] is 106 µM; in the assay on HeLa, 110 µM.
`O=C1/C(=C/c2ccc(F)cc2)CC/C1=C\c1ccc(F)cc1`: the “inhibition (INH)” value in [1] amounted to 70%. The inhibition result in the assay with EAT [2], in the assay with EAT [5] and with Mus musculus was “Active” throughout. Further, the result in the assay on EAT [3], in the assay on EAT [6] and in the assay with HepG2 [7] was Active. For the same molecule, the IC50 with HepG2 [4] came out at 48 µM; in the assay with HeLa, 39 µM.
As for `COc1cc(/C=C2\CC/C(=C\c3ccc(O)c(OC)c3)C2=O)ccc1O`, in assay [1], the “inhibition (INH)” value turned out to be 70%. For the same molecule, the inhibition result with EAT [2], with EAT [5] and with Mus musculus was “Active” throughout. Further, the result in the assay with EAT [3], with EAT [6] and with HepG2 [7] was Active. Moreover, the IC50 in the assay on HepG2 [4] worked out at 44 µM; in the assay on HeLa, 42 µM.
